In ChEMBL document CHEMBL1139626, “Total asymmetric synthesis of (-)-conduramine B-1 and of its enantiomer. N-Benzyl derivatives of conduramine B-1 are beta-glucosidase inhibitors” (Bioorg Med Chem Lett, 2005):
The source made the active and inactive calls. No cut-off for these calls is given here.

Legend:
[1] = target: T1, Glucoamylase 1 (Rhizopus oryzae) (UniProt P07683); assay: Inhibition against Amyloglucosidase from Rhizopus mold at 1 mM; (ni=no inhibition)
T1 sequence (whole entry): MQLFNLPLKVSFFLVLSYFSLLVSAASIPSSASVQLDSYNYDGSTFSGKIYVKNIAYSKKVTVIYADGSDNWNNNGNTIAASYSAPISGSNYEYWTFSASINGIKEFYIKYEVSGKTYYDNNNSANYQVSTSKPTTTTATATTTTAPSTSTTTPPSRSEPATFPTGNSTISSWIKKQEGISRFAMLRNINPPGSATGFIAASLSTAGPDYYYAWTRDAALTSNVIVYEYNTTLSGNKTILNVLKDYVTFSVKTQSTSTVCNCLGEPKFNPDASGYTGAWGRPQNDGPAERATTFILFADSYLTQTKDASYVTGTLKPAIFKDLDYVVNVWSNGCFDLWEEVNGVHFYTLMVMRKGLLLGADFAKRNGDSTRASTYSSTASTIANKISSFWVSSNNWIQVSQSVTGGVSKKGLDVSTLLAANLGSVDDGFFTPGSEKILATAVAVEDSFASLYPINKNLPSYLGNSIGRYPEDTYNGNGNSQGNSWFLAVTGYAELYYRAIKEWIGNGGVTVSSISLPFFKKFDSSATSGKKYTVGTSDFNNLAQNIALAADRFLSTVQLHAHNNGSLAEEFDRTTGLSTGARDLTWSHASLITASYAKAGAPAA

[2] = target: Beta-glucosidase A (Caldicellulosiruptor saccharolyticus) (UniProt P10482); assay: Percent inhibition against Beta Glucosidase from Caldocellum saccharolyticum at 1 mM
Beta-glucosidase A (Caldicellulosiruptor saccharolyticus), sequence (P10482 whole entry): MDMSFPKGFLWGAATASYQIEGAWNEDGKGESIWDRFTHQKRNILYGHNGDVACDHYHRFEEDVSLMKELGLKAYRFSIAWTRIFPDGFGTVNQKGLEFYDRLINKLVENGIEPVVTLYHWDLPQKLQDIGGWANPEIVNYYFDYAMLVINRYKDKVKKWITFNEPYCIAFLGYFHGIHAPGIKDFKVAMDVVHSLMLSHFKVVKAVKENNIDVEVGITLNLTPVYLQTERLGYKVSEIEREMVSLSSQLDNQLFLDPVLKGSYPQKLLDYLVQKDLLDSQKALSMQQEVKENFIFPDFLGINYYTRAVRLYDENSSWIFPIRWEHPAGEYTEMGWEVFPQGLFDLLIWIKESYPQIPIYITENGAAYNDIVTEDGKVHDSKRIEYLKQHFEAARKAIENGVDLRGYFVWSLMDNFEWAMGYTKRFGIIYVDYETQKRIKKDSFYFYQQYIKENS

[3] = target: Glucoamylase (Aspergillus niger) (UniProt P69328); assay: Inhibition against Amyloglucosidase from Aspergillus niger at 1 mM; (ni=no inhibition)
Glucoamylase (Aspergillus niger), sequence (P69328 whole entry): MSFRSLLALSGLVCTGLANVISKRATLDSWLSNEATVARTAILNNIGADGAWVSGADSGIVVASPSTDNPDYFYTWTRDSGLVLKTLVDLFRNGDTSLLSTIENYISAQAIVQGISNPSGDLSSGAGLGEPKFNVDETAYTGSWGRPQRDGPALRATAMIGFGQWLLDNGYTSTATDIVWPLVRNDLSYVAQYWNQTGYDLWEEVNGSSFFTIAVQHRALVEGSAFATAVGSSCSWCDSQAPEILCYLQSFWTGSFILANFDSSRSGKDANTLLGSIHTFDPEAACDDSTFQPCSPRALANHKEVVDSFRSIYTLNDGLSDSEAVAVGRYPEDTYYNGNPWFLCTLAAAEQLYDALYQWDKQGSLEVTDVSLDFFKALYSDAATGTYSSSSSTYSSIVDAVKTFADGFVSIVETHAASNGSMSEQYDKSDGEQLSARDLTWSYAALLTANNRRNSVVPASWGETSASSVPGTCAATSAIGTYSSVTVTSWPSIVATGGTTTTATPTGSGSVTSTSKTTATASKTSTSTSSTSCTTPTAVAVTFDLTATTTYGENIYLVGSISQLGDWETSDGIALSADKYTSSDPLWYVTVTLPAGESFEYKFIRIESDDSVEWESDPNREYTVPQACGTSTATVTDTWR

[4] = target: T2, Alpha-glucosidase (Oryza sativa Japonica Group) (UniProt Q9LGC6); assay: Inhibition against Alpha Glucosidase from rice at 1 mM; (ni=no inhibition)
T2 sequence (whole entry): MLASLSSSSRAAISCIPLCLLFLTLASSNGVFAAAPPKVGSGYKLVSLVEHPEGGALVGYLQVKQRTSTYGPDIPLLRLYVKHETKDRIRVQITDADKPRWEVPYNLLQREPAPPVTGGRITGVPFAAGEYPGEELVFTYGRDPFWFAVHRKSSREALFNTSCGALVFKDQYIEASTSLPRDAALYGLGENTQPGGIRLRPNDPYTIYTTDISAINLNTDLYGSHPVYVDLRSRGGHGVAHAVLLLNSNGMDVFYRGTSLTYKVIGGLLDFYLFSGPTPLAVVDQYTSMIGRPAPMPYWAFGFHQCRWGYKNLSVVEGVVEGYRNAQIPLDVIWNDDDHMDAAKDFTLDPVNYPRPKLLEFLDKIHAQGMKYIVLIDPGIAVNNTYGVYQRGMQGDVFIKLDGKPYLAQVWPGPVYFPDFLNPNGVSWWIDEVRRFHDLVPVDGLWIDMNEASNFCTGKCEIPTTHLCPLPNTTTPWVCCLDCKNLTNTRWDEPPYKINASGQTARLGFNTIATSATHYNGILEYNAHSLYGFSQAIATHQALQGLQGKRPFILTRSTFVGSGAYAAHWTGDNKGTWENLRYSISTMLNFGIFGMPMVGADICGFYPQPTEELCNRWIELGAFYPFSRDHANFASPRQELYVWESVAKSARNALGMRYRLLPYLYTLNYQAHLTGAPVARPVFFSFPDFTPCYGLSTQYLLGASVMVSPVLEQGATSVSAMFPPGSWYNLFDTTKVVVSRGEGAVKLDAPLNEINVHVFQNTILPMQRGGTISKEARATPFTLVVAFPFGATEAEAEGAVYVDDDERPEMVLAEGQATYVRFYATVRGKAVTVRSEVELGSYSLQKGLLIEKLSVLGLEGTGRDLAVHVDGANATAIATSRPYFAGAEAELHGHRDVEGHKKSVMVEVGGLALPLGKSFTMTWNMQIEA

[5] = target: T3, Exo-1,4-beta-xylosidase xlnD (Aspergillus niger) (UniProt O00089); assay: Inhibition against Beta-xylosidase from Aspergillus niger at 1 mM concentration
T3 sequence (whole entry): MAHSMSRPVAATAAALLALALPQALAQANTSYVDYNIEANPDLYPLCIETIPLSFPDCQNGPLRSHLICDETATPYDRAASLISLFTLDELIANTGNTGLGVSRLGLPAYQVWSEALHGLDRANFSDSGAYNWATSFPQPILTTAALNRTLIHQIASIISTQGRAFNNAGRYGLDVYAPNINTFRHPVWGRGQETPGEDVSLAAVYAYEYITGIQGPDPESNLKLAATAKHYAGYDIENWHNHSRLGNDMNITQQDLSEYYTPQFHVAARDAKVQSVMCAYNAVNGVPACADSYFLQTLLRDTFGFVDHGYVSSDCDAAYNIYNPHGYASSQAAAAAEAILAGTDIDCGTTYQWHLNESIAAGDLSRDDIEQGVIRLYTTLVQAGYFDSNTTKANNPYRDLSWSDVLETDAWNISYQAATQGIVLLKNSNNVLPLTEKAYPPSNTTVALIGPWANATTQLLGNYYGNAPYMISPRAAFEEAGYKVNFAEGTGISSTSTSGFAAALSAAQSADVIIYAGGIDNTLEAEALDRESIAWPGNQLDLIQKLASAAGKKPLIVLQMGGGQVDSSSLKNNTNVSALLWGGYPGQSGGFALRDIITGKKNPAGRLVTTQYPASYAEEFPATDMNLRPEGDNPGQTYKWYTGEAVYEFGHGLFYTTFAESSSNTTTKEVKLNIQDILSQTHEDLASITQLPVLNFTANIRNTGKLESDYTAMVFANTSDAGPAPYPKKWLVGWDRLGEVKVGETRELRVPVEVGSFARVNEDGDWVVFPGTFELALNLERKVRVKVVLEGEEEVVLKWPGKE

Prunus dulcis [6] = assay: Percent inhibition against Beta Glucosidase from Almonds at 1 mM
[7] = Inhibition against Alpha Glucosidase from yeast at 1 mM; (ni=no inhibition)
[8] = target: T1, Glucoamylase 1 (Rhizopus oryzae); assay: Percent inhibition against Amyloglucosidase from Rhizopus mold at 1 mM
[9] = target: T3, Exo-1,4-beta-xylosidase xlnD (Aspergillus niger); assay: Percent inhibition against Beta-xylosidase from Aspergillus niger at 1 mM; (ni=no inhibition)
[10] = target: Glucoamylase (Aspergillus niger) (UniProt P69328); assay: Percent inhibition against Amyloglucosidase from Aspergillus niger at 1 mM concentration
[11] = target: T3, Exo-1,4-beta-xylosidase xlnD (Aspergillus niger); assay: Percent inhibition against Beta-xylosidase from Aspergillus niger at 1 mM
[12] = target: T3, Exo-1,4-beta-xylosidase xlnD (Aspergillus niger); assay: Inhibition against Beta-xylosidase from Aspergillus niger at 1 mM; (ni=no inhibition)
[13] = Inhibitory concentration against Beta Glucosidase Almonds; parameters: species or system Prunus dulcis
[14] = Inhibitory concentration against Beta Glucosidase from Almonds; parameters: species or system Prunus dulcis
Prunus dulcis [15] = assay: Inhibition against Beta Glucosidase from Almonds at 1 mM
[16] = Inhibitory activity against Beta Glucosidase from Almonds; parameters: species or system Prunus dulcis
Beta-glucosidase A = Beta-glucosidase A (Caldicellulosiruptor saccharolyticus, UniProt P10482); assay: Inhibitory concentration against Beta Glucosidase Caldocellum saccharolyticum
Beta-glucosidase A, sequence (P10482 whole entry): as the sequence (P10482 whole entry) above

[17] = target: Beta-glucosidase A (Caldicellulosiruptor saccharolyticus) (UniProt P10482); assay: Inhibition against Beta Glucosidase from Caldocellum saccharolyticum at 1 mM; (ni=no inhibition)
Prunus dulcis [18] = assay: Inhibition against Beta Glucosidase from Almonds at 1 mM; (ni=no inhibition)
[19] = Percent inhibition against Alpha Glucosidase from yeast at 1 mM

Compound	inhibition [1]	inhibition [2]	inhibition [3]	inhibition [4]	inhibition (Prunus dulcis [6])	inhibition [7]	inhibition [8]	inhibition [12]	further results
COc1ccc(CNC2C=CC(O)C(O)C2O)cc1 (stereo in doubt; 4g)	inactive	68%	inactive	inactive	95%	inactive	–	–	inhibition [11]: 74%
CCCCCCCCNC1C=CC(O)C(O)C1O (racemic)	inactive	–	inactive	inactive	85%	inactive	–	inactive	IC50 [13]: 69 µM
CCCNC1C=CC(O)C(O)C1O (racemic)	–	–	inactive	inactive	–	inactive	30%	inactive	IC50 [14]: 66 µM; inhibition (Prunus dulcis [15]): 80%
OC1C=CC(NCc2ccc(-c3ccccc3)cc2)C(O)C1O (stereo in doubt; 4i)	–	–	–	–	–	–	–	–	Ki [16]: 8 µM; IC50 (Beta-glucosidase A): 35 µM; IC50 [14]: 32 µM

Now from value to compound, other results behind:

inhibition [1]	inhibition [2]	inhibition [3]	inhibition [4]	inhibition (Prunus dulcis [6])	inhibition [7]	inhibition [8]	Compound	inhibition [12]	further results
inactive	43%	inactive	inactive	96%	inactive	–	OC1C=CC(NCc2ccccc2)C(O)C1O (stereo in doubt; 4e)	–	inhibition [5]: 74%
–	56%	–	inactive	93%	inactive	57%	Oc1ccc(CNC2C=CC(O)C(O)C2O)cc1 (stereo in doubt; 4f)	–	inhibition [9]: 67%; inhibition [10]: 31%
–	–	inactive	inactive	–	–	29%	Oc1ccccc1CNC1C=CC(O)C(O)C1O (stereo in doubt; 4k)	inactive	inhibition [17]: inactive; inhibition (Prunus dulcis [18]): inactive; inhibition [19]: 41%
